One assay concerns the target T1, RalB (Homo sapiens, UniProt P11234).
T1 sequence (P11234 1-203): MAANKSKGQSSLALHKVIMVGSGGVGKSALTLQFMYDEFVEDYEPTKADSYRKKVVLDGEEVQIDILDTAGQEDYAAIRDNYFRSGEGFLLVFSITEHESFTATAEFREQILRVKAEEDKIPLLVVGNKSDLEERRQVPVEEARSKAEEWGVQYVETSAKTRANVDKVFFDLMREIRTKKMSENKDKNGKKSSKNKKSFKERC
Briefly: GST-RalBP1 pulldown of RalB-GTP from RBC8-treated, CRP-stimulated human platelets, immunoblot densitometry. The class given is cell-based. For orientation: Immunoblotting shows a protein as a band on a membrane.

In a further assay the target is T2, RalA (Homo sapiens, UniProt P11233).
T2 sequence (P11233 1-203): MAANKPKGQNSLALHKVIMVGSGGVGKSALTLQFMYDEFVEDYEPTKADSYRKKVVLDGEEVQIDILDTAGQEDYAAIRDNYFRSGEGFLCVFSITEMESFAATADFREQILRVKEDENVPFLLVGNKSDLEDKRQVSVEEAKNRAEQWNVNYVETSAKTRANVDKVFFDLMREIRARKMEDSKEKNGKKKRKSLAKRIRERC
Briefly: GST-RalBP1 pulldown of RalA-GTP from RBC8-treated, CRP-stimulated human platelets, immunoblot densitometry. The class given is cell-based.

In general, IC50 refers to the concentration that inhibits the measured activity by half. A lower IC50 goes with higher potency. As for `COc1ccc(OC)c(C2C(C#N)=C(N)Oc3n[nH]c(-c4ccc5ccccc5c4)c32)c1` (centres unmarked) [RBC8], the IC50 worked out at 2.3 µM at RalB and 2.2 µM on RalA.

Source of the values: article PMC6510928, “Characterisation of the Ral GTPase inhibitor RBC8 in human and mouse platelets” (Cellular Signalling, 2019).
